Assay results reported in patent publication US8192935B2, “Methods for assessing cisplatin resistance, disease progression, and treatment efficacy in ovarian cancer as related to MetAP2 expression” (The Penn State Research Foundation, priority 2003, dated 2012).
Where two headings read alike, the source gives them in different places.

Columns and labels:
MetAP-2 [1] = biological target: MetAP-2 (Homo sapiens, UniProt P50579); conditions: Griffith et al.; cited from earlier work
human colon cancer = conditions: Tanaka et al., 1995; cited from earlier work
OVCA 429 cells = conditions: for 429: increased sensitivity to cis-platin: OVCA 429 cells with specific siRNA
MetAP-2 [2] = conditions: several different cell types; Wang et al., 2000; cited from earlier work
MetAP-2 messenger RNA = assay: siRNA knockdown, quantitative real-time PCR; conditions: OVCA 429 (FIG. 44)
Method: The reaction mixture was then incubated at 42° C. for 60 minutes. cDNA dilutions from 1:4 to 1:256 were prepared. […] Green PCR Master Mix (Qiagen), 0.3 μM of forward primer, 0.3 μM of reverse primer, and RNase free water were added to a final volume of 45 μl.
Sequence detection was determined using the ABI Prism 7700 (Applied Biosystems, Inc., Foster City, Calif.) sequence detection system or the MJ Research (Waltham, Mass.) Opticon II system as follows: PCR initial activation step was carried out for 15 minutes at 95° C.; samples were denatured for 15 seconds at 94° C., annealed for 30 seconds at 53° C. (55° C. when the Opticon II system was used), and extended for 30 seconds at 72° C. (data was acquired during this step); the PCR reaction was repeated for 50 cycles. A melting curve analysis was prepared by adding on the following steps: 15 seconds at 95° C., 20 seconds at 60° C., and 20 seconds at 95° C.
The siRNA experiments described herein were conducted using the siPORT Lipid protocol (Ambion). […]
Cells were transfected with the siRNA constructs following instruction from the supplier (Ambion). […] The OD260 readings of siRNA were performed in duplicate at a 1:100 dilution. The readings were averaged, then multiplied by the dilution factor and then by multiplied by 40 (the OD260of 1 is equal to 40 μg/ml of RNA) to get the final concentration of siRNA in μg/ml. […]

NM23-D (BC004880) = assay: siRNA-mediated knockdown of gene expression; format: cell-based, human; conditions: OVCA 429 cells
OVCAR-3 cells = assay: MTT assay, cis-platin sensitivity with siRNA; format: cell-based, human; conditions: OVCAR-3 cells with specific siRNA
RNPS1 (AF015608) = assay: siRNA-mediated knockdown of gene expression; format: cell-based, human; conditions: ovarian cancer cell lines
S100A11 message = assay: siRNA knockdown of gene expression; format: cell-based, human; conditions: OVCA 429 (FIG. 57)
SAPK/Erk1 (L36870) = assay: siRNA-mediated knockdown of gene expression; format: cell-based, human; conditions: ovarian cancer cell lines
[3] = system: SRB1/CLA1/CD3611 (BCO22087); assay: siRNA-mediated knockdown of gene expression; format: cell-based, human; conditions: ovarian cancer cell lines
Vinexin 13 (AF037261) = assay: siRNA-mediated knockdown of gene expression; format: cell-based, human; conditions: OVCA 429 cells
WDR1 (AB010427) = assay: siRNA-mediated knockdown of gene expression; format: cell-based, human; conditions: OVCA 429 cells
eEF1ε (BC005291) = assay: siRNA-mediated knockdown of gene expression; format: cell-based, human; conditions: ovarian cancer cell lines
e-IF2Bε (BC013590) = assay: siRNA-mediated knockdown of gene expression; format: cell-based, human; conditions: ovarian cancer cell lines

Sequence of MetAP-2 (Homo sapiens, UniProt P50579) (P50579 whole entry, species assumed): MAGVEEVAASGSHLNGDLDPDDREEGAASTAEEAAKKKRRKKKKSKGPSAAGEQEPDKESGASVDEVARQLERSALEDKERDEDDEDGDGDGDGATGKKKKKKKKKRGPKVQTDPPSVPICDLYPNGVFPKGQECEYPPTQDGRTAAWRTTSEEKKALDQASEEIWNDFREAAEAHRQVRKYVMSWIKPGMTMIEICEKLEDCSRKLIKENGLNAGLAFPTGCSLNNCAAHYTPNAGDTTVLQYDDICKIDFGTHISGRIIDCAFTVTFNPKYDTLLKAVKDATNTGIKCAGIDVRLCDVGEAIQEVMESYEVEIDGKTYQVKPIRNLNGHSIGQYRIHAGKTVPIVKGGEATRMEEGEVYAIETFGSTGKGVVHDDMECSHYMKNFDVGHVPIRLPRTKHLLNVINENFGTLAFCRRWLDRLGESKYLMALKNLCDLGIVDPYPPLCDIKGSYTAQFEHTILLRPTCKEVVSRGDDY

CO[C@@H]1[C@H](OC(=O)NC(=O)CCl)CC[C@]2(CO2)[C@H]1[C@@]1(C)O[C@@H]1CC=C(C)C [TNP-470]
inhibition of the methionine aminopeptidase activity of MetAP-2 (MetAP-2 [1]): covalently binds to and inhibits | hepatic metastasis of human colon cancer (human colon cancer): can be prevented

CO[C@@H]1[C@H](OC(=O)/C=C/C=C/C=C/C=C/C(=O)O)CC[C@]2(CO2)[C@H]1[C@@]1(C)O[C@@H]1CC=C(C)C [fumagillin]
effect on the action of cis-platin (OVCA 429 cells; OVCA 429, 0.1 μg/ml fumagillin, 4 hours): enhancement of the effect of cis-platin | effect on the action of cis-platin (OVCA 429 cells; OVCA 429, 0.1 μg/ml fumagillin, 8 hours): enhancement of the effect of cis-platin | effect on the action of cis-platin (OVCA 429 cells; OVCA 429, 0.1 μg/ml fumagillin, regardless of the length of incubation time (FIGS. 41 and 42)): enhancement of the effect of cis-platin | effect on the action of cis-platin (OVCA 429 cells; OVCA 429, 10 μg/ml fumagillin, regardless of the length of incubation time (FIGS. 41 and 42)): opposite effect | cell survival with fumagillin alone (OVCA 429 cells; OVCA 429, very high concentrations of fumagillin, 4 hours (FIG. 40)): up to 80% | inhibition of the methionine aminopeptidase activity of MetAP-2 (MetAP-2 [1]): covalently binds to and inhibits | expression of MetAP-2 after treatment (MetAP-2 [2]): increased expression of MetAP-2

MetAP-2 siRNA #2: siRNA to MetAP-2; target sequence AAGCA CAT CGA CAA GTT AGA A (guide AAGCACATCGACAAGTTAGAA; target site or template, no part of the molecule; listed as DNA, chemistry not given here; listed as Homo Sapiens)
levels of MetAP-2 expression (MetAP-2 messenger RNA): did not result in a reduction

MetAP-2 siRNA #3: siRNA to MetAP-2; target sequence AAACA GTG CCG ATT GTG AAA G (guide AAACAGTGCCGATTGTGAAAG; target site or template, no part of the molecule; listed as DNA, chemistry not given here; listed as Homo Sapiens)
levels of MetAP-2 expression (MetAP-2 messenger RNA): did not result in a reduction

NM23D siRNA #3: siRNA to NM23-D; target sequence AATGTCATCCACGCCAGCGAC (guide AATGTCATCCACGCCAGCGAC; target site or template, no part of the molecule; listed as DNA, chemistry not given here; listed as Homo Sapiens)
reduction of NM23-D mRNA levels compared to control (NM23-D (BC004880)): approximately 50% | 429: increased sensitivity to cis-platin (OVCA 429 cells): yes | OVCAR-3: increased sensitivity to cis-platin (OVCAR-3 cells): yes

RNPS1 siRNA #1: siRNA to RNPS1; target sequence AATATTCATACGGCATGGACT (guide SDNAATATTCATACGGCATGGACT; target site or template, no part of the molecule; listed as DNA, chemistry not given here; listed as Homo Sapiens)
429: increased sensitivity to cis-platin (OVCA 429 cells): yes | reduction in the level of RNPS1 mRNA (RNPS1 (AF015608)): 35%

S100A11 siRNA #1: siRNA to S100A11; AA AGG ATG GTT ATA ACT ACA C (guide AAAGGATGGTTATAACTACAC; target site or template, no part of the molecule; listed as DNA, chemistry not given here; listed as Homo Sapiens)
knockdown of S100A11 gene expression levels (S100A11 message): 50%

S100A11 siRNA #2: siRNA to S100A11; AA GAA ACT GGA CAC CAA CAG T (guide AAGAAACTGGACACCAACAGT; target site or template, no part of the molecule; listed as DNA, chemistry not given here; listed as Homo Sapiens)
knockdown of S100A11 gene expression levels (S100A11 message): 25%

SAPK/Erk1 siRNA #2: siRNA to SAPK/Erk1; target sequence AAGCGCATCACGACAAGGATA (guide AAGCGCATCACGACAAGGATA; target site or template, no part of the molecule; listed as DNA, chemistry not given here; listed as Homo Sapiens)
429: increased sensitivity to cis-platin (OVCA 429 cells): yes | reduction in the level of SAPK mRNA (SAPK/Erk1 (L36870)): 60% | OVCAR-3: increased sensitivity to cis-platin (OVCAR-3 cells): yes

SRB1 siRNA #1: siRNA to SRB1; target sequence AAGCAGCAGGTCCTTAAGAAC (guide AAGCAGCAGGTCCTTAAGAAC; target site or template, no part of the molecule; listed as DNA, chemistry not given here; listed as Homo Sapiens)
429: increased sensitivity to cis-platin (OVCA 429 cells): yes | reduction in the level of SRB1 mRNA [3]: 60% | OVCAR-3: increased sensitivity to cis-platin (OVCAR-3 cells): yes

SRB1 siRNA #3: siRNA to SRB1; target sequence AATTCAGAACGTCAGCACCTG (guide AATTCAGAACGTCAGCACCTG; target site or template, no part of the molecule; listed as DNA, chemistry not given here; listed as Homo Sapiens)
reduction in the level of SRB1 mRNA [3]: successful in reducing the expression of SRB1

Vinexin β siRNA #2: siRNA to Vinexin (AF037261); target sequence AAGAGTTACCTAGAAGCACCT (guide AAGAGTTACCTAGAAGCACCT; target site or template, no part of the molecule; listed as DNA, chemistry not given here; listed as Homo Sapiens)
429: increased sensitivity to cis-platin (OVCA 429 cells): no | reduction of Vinexin mRNA levels compared to control (Vinexin 13 (AF037261)): approximately 50% | OVCAR-3: increased sensitivity to cis-platin (OVCAR-3 cells): yes

WDR1 siRNA #1: siRNA to WDR1; target sequence AATGGAAAGTGCGTCATCCTA (guide AATGGAAAGTGCGTCATCCTA; target site or template, no part of the molecule; listed as DNA, chemistry not given here; listed as Homo Sapiens)
429: increased sensitivity to cis-platin (OVCA 429 cells): no | reduction of WDR1 mRNA levels compared to control (WDR1 (AB010427)): approximately 85% | OVCAR-3: increased sensitivity to cis-platin (OVCAR-3 cells): yes

WDR1 siRNA #2: siRNA to WDR1; target sequence AAGTTCACAATTGGCGACCAC (guide AAGTTCACAATTGGCGACCAC; target site or template, no part of the molecule; listed as DNA, chemistry not given here; listed as Homo Sapiens)
reduction of WDR1 mRNA levels compared to control (WDR1 (AB010427)): approximately 75%

WDR1 siRNA #3: siRNA to WDR1; target sequence AAGTGCTTCAGCATCGACAAC (guide AAGTGCTTCAGCATCGACAAC; target site or template, no part of the molecule; listed as DNA, chemistry not given here; listed as Homo Sapiens)
reduction of WDR1 mRNA levels compared to control (WDR1 (AB010427)): approximately 70%

eEF1ε siRNA #1: siRNA to eEF1ε; target sequence AACAGGATTGACTACTATAGC (guide AACAGGATTGACTACTATAGC; target site or template, no part of the molecule; listed as DNA, chemistry not given here; listed as Homo Sapiens)
reduction in the level of eEF1ε mRNA (eEF1ε (BC005291)): 65%

eEF1ε siRNA #2: siRNA to eEF1ε; target sequence AATACAGGGTCACTCAAGTAG (guide AATACAGGGTCACTCAAGTAG; target site or template, no part of the molecule; listed as DNA, chemistry not given here; listed as Homo Sapiens)
reduction in the level of eEF1ε mRNA (eEF1ε (BC005291)): successful in reducing the expression of eEF1ε

eIF2Bε siRNA #1: siRNA to e-IF2Bε; target sequence AATGTGGTTCGAATAATTACA (guide AATGTGGTTCGAATAATTACA; target site or template, no part of the molecule; listed as DNA, chemistry not given here; listed as Homo Sapiens)
429: increased sensitivity to cis-platin (OVCA 429 cells): yes | reduction in the level of e-IF2Bε mRNA (e-IF2Bε (BC013590)): 57% | OVCAR-3: increased sensitivity to cis-platin (OVCAR-3 cells): yes

eIF2Bε siRNA #2: siRNA to e-IF2Bε; target sequence AAACTCGAGATGACTTTGTGC (guide AAACTCGAGATGACTTTGTGC; target site or template, no part of the molecule; listed as DNA, chemistry not given here; listed as Homo Sapiens)
reduction in the level of e-IF2Bε mRNA (e-IF2Bε (BC013590)): 54%

eIF2Bε siRNA #3: siRNA to e-IF2Bε; target sequence AATCAACAGCTGCAGAGGTTC (guide AATCAACAGCTGCAGAGGTTC; target site or template, no part of the molecule; listed as DNA, chemistry not given here; listed as Homo Sapiens)
reduction in the level of e-IF2Bε mRNA (e-IF2Bε (BC013590)): 43%
